From patent US10703752B2, “Integrin antagonists” (OXURION NV, priority 2018, dated 2020) come the findings set out here.

Structures can show the parent of a compound that is named as a salt. Some results are limits rather than exact numbers.

Usually EC50 stands for the concentration needed to bring the measured effect to its halfway point. The term IC50 denotes the midpoint of a concentration-inhibition curve.

One assay deals with platelet integrin αIIbβ3 (Homo sapiens, UniProt P05106+P08514). Description: Competition ELISA, integrin antagonism (fibronectin ligand). The following applies: fibronectin binding to coated receptor. As for the experimental part: (§1) Suitable methods for determining EC50 values are known to the skilled person. One particular method to determine the value for a particular compound is a competition ELISA assay wherein the integrin receptor under investigation (in particular human αvβ3 integrin receptor) is coated to a multi-well plate using a 4 μg/mL solution and the wells are blocked with 5% bovine serum albumin. The fibronectin concentration to be used in the assay is determined experimentally in a separate experiment by testing the binding of various fibronectin concentrations to the coated integrin under investigation, the concentration of fibronectin for the assay being the one that gives 80% of maximal binding. The determined concentration of human fibronectin is then added to the coated and blocked wells in the presence of increasing concentrations of the compound. After 2 h incubation at 37° C., the wells are washed and the bound fibronectin is detected with the help of a specific reagent, such as a detectable anti-fibronectin antibody. Quantitative analysis of the data is then performed to determine EC50 values, i.e. the concentration of the compound that reduces fibronectin binding to the coated receptor by 50%.
(§2) The principle of the competition ELISA assays used here was as follows: (1) the integrin receptor under investigation was coated to 96-well plates and the wells were blocked, (2) an integrin ligand (fibronectin) was then added to the relevant wells in the presence of increasing concentrations of a given integrin antagonist, (3) after a defined amount of time, the wells were washed and the bound ligand was detected with the help of a specific reagent. Quantitative analysis of the data was then performed to determine EC50 values, i.e. the concentration of the integrin antagonist that reduces ligand binding to the coated receptor by 50%.
In general terms: ELISA stands for enzyme-linked immunosorbent assay.

For the next assay, the target named is αvβ5 integrin receptor (Homo sapiens, UniProt P06756+P18084). The description is as above. Conditions: fibronectin binding to coated receptor, read-out: EC50 ανβ5. As for the experimental part:
as §1, §2

Another assay deals with α5β1 integrin receptor (Homo sapiens, UniProt P05556+P08648). The assay is described as above. Conditions: fibronectin binding to coated receptor. As for the experimental part:
as §1, §2

The target of a further assay is αvβ3 integrin receptor (Homo sapiens, UniProt P05106+P06756). The description is as above. The following applies: fibronectin binding to coated receptor, read-out: EC50 ανβ3. The method, then: as §1, §2
For assay [1], the system named is human umbilical vein endothelial cells (HUVECs). The experiment in a line: ORIS Cell Migration Assay. The assay is classed as cell-based. Conditions: HUVEC, fibronectin-coated plates, 24 h migration. The method, then:
Endothelial cell wound healing is mediated by endothelial cell migration and proliferation, both critical components of the angiogenesis process, and is routinely used as a surrogate model for in vitro angiogenic potential. The ORIS™ Cell Migration Assay was used with human umbilical vein endothelial cells (HUVECs).
HUVEC cells (SCCE-001, Cat no 1000519, Merck Chemicals) were cultured in T175 flasks (Cat no 353112, falcon) in EndoGro Growth Medium (SCME-003, Merck Chemicals) and split when they reached 90-100% confluence.
For the assay, cells were used at passage 2 to 4 after thawing and at 80-90% confluency. At the beginning of the day, the fibronectin-coated Oris™ Cell Migration Assay Plates (Cat no # CMAFN.101, AMS Biotechnology) were removed from refrigeration and placed at RT for 1 h. The Oris Detection Masks were washed with ethanol and applied to the bottom of the 96-well plates, aligning the Al corner of the masks with the Al corner of the plates. Cells were harvested by trypsinization (Cat no 25300, Gibco), centrifuged at 250 g for 5 mm and suspended at 0.4·10^6 per mL in complete EndoGro growth medium. 100 μL of the cell suspension were added to the wells and the plates were incubated for 6 h at 37° C. and 5% C02 to allow cells to adhere.
At the end of the incubation, the stopper tool was washed with ethanol and used to remove the stoppers from all the wells except the reference wells. […]
Just prior to the end of the incubation, a 4 μg/mL calcein AM (Cat no 354217, Beckton Dickinson) solution was prepared in pre-warmed HBSS (Cat no 14025, Gibco). […] After incubation the fluorescence was read at 494 nm excitation and 517 nm emission wavelengths using the Flexstation and the SofiMax Pro 5.4.5 software (Molecular Devices). The fluorescence was read from the bottom of the plates with the lid on to keep them sterile. The masks were then removed and pictures were taken with the Axiovert fluorescence microscope (Zeiss) using reflected light, GFP and a 2.5× objective.

In assay [2] the test system is RPE-choroid sclera explants. Description: Murine choroidal explant assay (vessel sprouting). The assay is classed as cell-based, C57BL/6J mice. Conditions: for IC50: Mus musculus, murine choroid explants in fibrin gel, 3 to 4 days, read-out: IC50 vessel outgrowth. From the text:
The assay is based on a murine microvascular angiogenesis explant model, which closely mimics in viva choroidal angiogenesis. The major advantage of this organotypical culture model is that cells are kept within their normal environment, thereby preserving cell-cell interactions, while maintaining a higher level of experimental control than in animal models. The choroidal explant model or briefly EMCA model allows for rapid evaluation of new anti-angiogenic therapeutics, with the additional benefit of excluding the potential lack of exposure often encountered when testing small molecules in animal eyes. RPE-choroid sclera explants (hereinafter referred to as choroid explants) are embedded in a three-dimensional fibrinogen/fibrin gel. Addition of serum-containing medium induces extensive endothelial cell sprout outgrowth into the matrix after 3 to 4 days in culture.
All experiments were performed using 4 to 5-weeks old male C57BL/6J mice (Charles River Laboratories France), housed under standard laboratory conditions according to a normal day/night rhythm with ad libitum access to food and water. All animal experiments were approved by the Institutional Ethical Committee of KU Leuven.
After initial optimization, a general protocol was set-up. Briefly, after euthanasia of the mice using pentobarbital (200 mg/kg, IP, Dolethal, Vetoquinol) followed by cervical dislocation, eyes were immediately enucleated with curved forceps and kept in ice-cold DPBS (cat no 14190-136, Gihco). Under a stereomicroscope, the eye was placed in a drop of ice-cold DPBS, and held in place with forceps on an ice-cold petri dish. The cornea and lens were removed via a circumferential incision at the limbus (cornea-sclera boundary) using Vannas spring scissors (Fine Science Tools). Next, redundant muscles were removed from the remaining eyeball and a cut was made from the edge of the posterior chamber towards the optic nerve head. […]

Consider `Cc1nc(NC[C@H](NC(=O)OCCC(=O)O)C(=O)O)c(C)c(N2CCC(c3ccc4c(n3)NCCC4)CC2)n1` [cpd1, (2S)-2-{[(2-carboxyethoxy)carbonyl]amino}-3-({2,5-dimethyl-6-[4-(5,6,7,8-tetrahydro-1,8-naphthyridin-2-yl)piperidin-1-yl]pyrimidin-4-yl}amino)propanoic acid], for which the EC50 was > 25 nM at platelet integrin αIIbβ3, 1 to 10 nM on αvβ5 integrin receptor, 1 to 10 nM on α5β1 integrin receptor and 1 to 10 nM on αvβ3 integrin receptor.

As to `Cc1nc(NC[C@H](NC(=O)OCC(=O)O)C(=O)O)c(C)c(N2CCC(c3ccc4c(n3)NCCC4)CC2)n1` [cpd2, (2S)-2-([(carboxymethoxy)carbonyl]amino)-3-({2,5-dimethyl-6-[4-(5,6,7,8-tetrahydro-1,8-naphthyridin-2-yl)piperidin-1-yl]pyrimidin-4-yl}amino)propanoic acid dihydrochloride], the EC50 on platelet integrin αIIbβ3 is > 25 nM; on αvβ5 integrin receptor it was 1 to 10 nM; on α5β1 integrin receptor it was 1 to 10 nM; at αvβ3 integrin receptor, 1 to 10 nM. Further, the IC50 in assay [1] was < 1000 nM.

For `Cc1nc(NC[C@H](NC(=O)OC(C)C(=O)O)C(=O)O)c(C)c(N2CCC(c3ccc4c(n3)NCCC4)CC2)n1` (stereo partly drawn) [cpd3, (2S)-2-{[(1-carboxyethoxy)carbonyl]amino}-3-({2,5-dimethyl-6-[4-(5,6,7,8-tetrahydro-1,8-naphthyridin-2-yl)piperidin-1-yl]pyrimidin-4-yl}amino)propanoic acid, dihydrochloride], the EC50 at platelet integrin αIIbβ3 is > 25 nM; at αvβ5 integrin receptor, 1 to 10 nM; at α5β1 integrin receptor, 1 to 10 nM; on αvβ3 integrin receptor, 1 to 10 nM. Moreover, the half-inhibitory concentration (IC50) is ~1000 nM in assay [2] and < 1000 nM in assay [1]. The “endothelial sprout formation, in words” value in assay [2] (murine choroid explants) is “inhibition of vessel sprouting”.

As for `COC(=O)CCOC(=O)N[C@@H](CNc1nc(C)nc(N2CCC(c3ccc4c(n3)NCCC4)CC2)c1C)C(=O)O` [cpdA, (2S)-3-({2,5-dimethyl-6-[4-(5,6,7,8-tetrahydro-1,8-naphthyridin-2-yl)piperidin-1-yl]pyrimidin-4-yl}amino)-2-{[(3-methoxy-3-oxopropoxy)carbonyl]amino}propanoic acid trifluoro acetate, reference compound], the EC50 at platelet integrin αIIbβ3, at αvβ5 integrin receptor, at α5β1 integrin receptor and on αvβ3 integrin receptor was 1 to 10 nM each time.

Turning to `Cc1nc(NC[C@H](NC(=O)OCc2ccccc2)C(=O)O)c(C)c(N2CCC(c3ccc4c(n3)NCCC4)CC2)n1` [cpdB, reference compound], the EC50 on platelet integrin αIIbβ3 fell in the range of 1 to 10 nM; on αvβ5 integrin receptor it was 1 to 10 nM; at α5β1 integrin receptor, 1 to 10 nM; on αvβ3 integrin receptor, 10 to 25 nM. The values for the IC50 in assay [2] and in assay [1] were ~1000 nM and < 1000 nM, respectively.
